In patent US8466311B2, “Neuroprotective compositions and methods” (Sanford-Burnham Medical Research Institute, priority 2006, dated 2013):

Assays:
ARE = ARE luciferase reporter in cortical cultures; format: cell-based, rat
Procedure: Cortical cultures (E17, DIV21) were transfected with ARE-luciferase reporter gene DNA (1 μg/well) and co-transfected with pEF6 or pEFNrf2DN. CA (3 μM) or vehicle was then added to the cultures. After a 24-h incubation, cell lysates were used for luciferase reporter gene assays. Values are mean±SEM; *p<0.01 by ANOVA.
Next, transcriptional activation of the HO-1 promoter by NEPP was examined by reporter gene assays in primary neurons. Cortical cultures were transfected with reporter cDNAs (1 μg per well), and 0.7 μM NEPP11 was added to the cultures. After a 24 h incubation, cell lysates were subjected to luciferase reporter assays. […] If the Keap1/Nrf2 pathway, indeed, mediates activation of the HO-1 promoter by NEPP11, mutant Nrf2 protein should inhibit this activation. […] Moreover, the selective activation in neurons may explain the relatively small amplitude of total HO-1 activation seen in the mixed neuronal/glial culture system in which glia predominate.
Transient transfection and measurement of luciferase activity. PC12h cells or cerebrocortical cultures (E17, DIV21) were incubated for 5 h in EBSS containing 1 μg of a plasmid DNA plus Lipofectamine 2000 (Invitrogen, Carlsbad, Calif.). Transfection efficiency was normalized to β-galactosidase activity expressed by co-transfection with pSV-β-gal (Promega). For reporter gene assays, cells were transfected with 1 μg of the reporter construct [ARE(GSTYa)-luciferase] and 0.2 μg pSV-β-gal for 1 hour. The cells were then washed in PBS alone and incubated in the culture medium for another 24 h with or without CA. Firefly luciferase activity and β-galactosidase activity in cell lysates were measured using a Luciferase System and β-Galactosidase Enzyme Assay System, respectively (Promega, Madison, Wis.).
To confirm that CA activated the ARE in these cortical cultures, we performed luciferase reporter gene assays. […] CA accumulates both in neurons and in non-neuronal cells (FIG. 5).

MCAO/reperfusion injury = test: Focal cerebral ischemia: MCAO/reperfusion in mice; format: in vivo, mouse
Procedure: Focal cerebral ischemia and reperfusion. The filament model of middle cerebral artery occlusion (MCAO)/reperfusion was used as described (Gu et al., Science 297:1186-1190, 2002; see Supporting Methods in Supporting Text).
NEPP11 or vehicle was injected intraperitoneally (i.p.) 1 h before and 4 h after MCAO. The area of brain infarction (corrected for possible edema) was assessed on coronal sections from vehicle- and NEPP11-treated mice stained with 2.5% 2,3,5-triphenyltetrazolium chloride 24 h after the onset of reperfusion.
Focal Cerebral Ischemia and Reperfusion. NEPP11 was injected at 100 mg/ml in a 7.5% solution of DMSO in PBS; controls received the diluent alone. The investigator was blinded as to the treatment group. The injected volume was 10 ml/g of body weight, corresponding to 1 mg/kg. […] Other physiological parameters were monitored, including systemic blood pressure, glucose, and arterial blood gasses and pH. […] Occlusion and reperfusion of blood flow were monitored by laser Doppler flowmetry. […]
After the reperfusion period, the animals were killed. […] Areas of infarction occurred in the right middle cerebral artery territory of each brain slice and were quantified with a computerized image analysis system (NIH image 1.62) as described (Gu et al., Science 297:1186-1190, 2000). […]

PC12h cells = test: Oxidative glutamate toxicity in PC12h cells (MTT assay); format: cell-based
Procedure: PC12h cells, PC12hW1B cells, and PC12hD5D cells (expressing Nrf2DN) were incubated with various concentrations of glutamate for 20 h. […] Various concentrations of CA were added to PC12, PC or PC12hD5D cells 1 h prior to exposure to 5 mM glutamate for 20 h.
PC12h and COST cell cultures.
Thus, we examined whether CA could protect PC12h cells from such insults. We prepared naïve PC12h cells, Nrf2WT-expressing PC12h cells (PC12hW1B), and Nrf2DN-expressing PC12h cells (PC12hD5D). In order to examine the effects of the Keap1/Nrf2 pathway on cell survival in the face of oxidative stress, we exposed the cells to a high concentration of glutamate. […] To visualize surviving and dead cells, we stained cultures with fluorescein diacetate (FDA) and propidium iodide (PI), respectively. Additionally, cell survival was quantified by the 3-(4,5-dimethylthiazol-2-yl)-2,5-diphenyl tetrazolium bromide (MTT) assay (FIG. 4A).
We next tested the hypothesis that CA-induced neuroprotection is mediated by the Keap1/NRf2 pathway.

cerebrocortical neurons = test: NMDA-induced neuronal cell death (excitotoxicity) in cerebrocortical cultures
Procedure: We stained the cultures with both anti-MAP-2 and anti-NeuN monoclonal antibodies to label neuronal dendrites and nuclei, respectively. Vehicle or NEPP11 (0.7 μM) was added to cerebrocortical cultures (E17 and DIV14-21) 60 min before treatment with NMDA (50 μM) for 15 min. The cultures were then incubated for 20 h and subsequently stained with anti-MAP-2 and anti-NeuN and with Hoechst dye. Apoptotic nuclei were identified by morphological changes seen with Hoechst staining. […] We also added zinc protoporphyrin (ZnPP, 10 μM), a relatively specific HO-1 antagonist, simultaneously with NEPP11. The number of apoptotic neurons was assessed by determining the apoptotic index [(number of condensed nuclei in MAP-2 or NeuN-positive cells)/(number of total MAP-2 or NeuN-positive cells)×100%], as reported by Bonfoco et al. (Proc. Natl. Acad. Sci. USA 92:7162-7166, 1995).
Cerebrocortical cultures were prepared from embryonic day-17 Sprague-Dawley rats and used at day 14-21 in vitro (DIV14-21), as described (Bonfoco et al., Proc. Natl. Acad. Sci. USA 92:7162-7166, 1995). To induce predominantly neuronal apoptosis (rather than necrosis), we exposed cortical cultures to 50 mM NMDA plus 5 mM glycine/1.8 mM CaCl2 in nominally Mg^2+-free Earle's balanced salt solution for 15 min (Bonfoco et al., Proc. Natl. Acad. Sci. USA 92:7162-7166, 1995). After exposure to NMDA, the cultures were returned to normal medium containing vehicle or NEPP11 and incubated for 20 hr before analyzing cell survival. To assess the ability of NEPP compounds to block NMDA-induced neuronal apoptosis, we identified apoptotic neurons by double immunofluorescence with anti-NeuN and anti-MAP-2 to specifically label neurons and with Hoechst staining for nuclear morphology to detect apoptosis. The percentage of neurons and non-neuronal cells in our cultures was 33.6±4.9% and 66.4±4.4% (n=4), respectively.
In addition, we used mature cortical cultures (E17, DIV21) to assess excitotoxicity because functional NMDA receptors are expressed on these neurons.

MEF2-binding site = test: Enhancer element luciferase reporter p3xMEF2luc; format: cell-based; details: NEPP11 2 μM
Procedure: Because the E1 and E2 regions also contain other enhancer elements, we tested the effects of NEPP11 (2 μM) on the expression of luciferase activity derived from these elements, including the cAMP-responsive element (CRE; p3xCREluc), AP-1 binding site (p3xAP1luc), NF-κB binding site (p3xNF-κBluc), NFAT-binding site (p3xNFATluc), ETS-binding site (p3xETSluc), and MEF2-binding site (p3xMEF2luc).

caspase-3 = test: NMDA-induced caspase-3 activation; format: cell-based, rat; details: NEPP11 1 μM
Text: Indeed, we found this to be the case.

[1] = test system: thioredoxin and glutaredoxin; test: Expression of Trx and Grx genes in cortical cultures (RT-PCR); format: cell-based, rat; set-up: expression of the Trx and Grx genes: dose or concentration left out as unconfirmed
Procedure: One caveat to the mechanism of NEPP and other electrophilic compounds acting at the level of Keap1 to induce HO-1 transcription is that NEPP could potentially react indiscriminately with other thiol-containing compounds in cells. To approach this question, we assessed cellular glutathione (GSH) levels to determine whether NEPP11 would affect this abundant antioxidant thiol. Nepp11 or N-ethylmaleimide (NEM) was added at t=0 and levels of total GSH were measured at the indicated times. GSH content of control cortical cultures (set arbitrarily at 100%) was 46.8±4.5 nmol/mg protein. […] In fact, this scenario seems likely, because the Keap1/Nrf2 pathway regulates the expression of γ-GCL in addition to HO-1 (Itoh et al., Mol. Cell. Biol. 24:36-45, 2004). Besides GSH, cells have another major reduction pathway representing the thioredoxin-glutaredoxin system.
Lack of Effect of NEPP Compounds on Expression of Trx and Grx Genes. […]

| SMILES | ARE activation with Nrf2-DN (ARE; 3 μM CA) | ARE-mediated transcription increase (ARE; 3 μM CA, E17 DIV21, 24 h) [fold] | infarct volume, % of the ipsilateral hemisphere (MCAO/reperfusion injury; CA 1 mg/kg i.p. 1 h prior to MCAO, 2-h MCAO/24-h reperfusion, vehicle 51.2±2.4%) [%] | protective effects in PC12hD5D cells (Nrf2DN) (PC12h cells; CA) | concentrations protecting PC12h cells against oxidative glutamate toxicity (PC12h cells; dose-dependent, 5 mM glutamate 20 h, CA 1 h prior) [µM] | viability at 3 µM (cerebrocortical neurons; Rattus norvegicus, Cerebrocortical neuron, read-out: survival (viable cells) after NMDA) [%] | activity of p3xMEF2luc (MEF2-binding site) | activity of the ARE core element (ARE; NEPP11 0.7 μM, 24 h) | NMDA-induced caspase-3 activation (caspase-3) | expression of thioredoxin or glutaredoxin ([1]; NEPP11 1 μM) | expression of the Trx and Grx genes ([1]; NEPP11, 24 hr, RT-PCR) | infarct area in coronal sections (MCAO/reperfusion injury; NEPP11 1 mg/kg i.p. 1 h before and 4 h after MCAO, 2 hr MCAO, 24 hr reperfusion) | number of apoptotic neurons (cerebrocortical neurons; NEPP11 0.7 μM 60 min before NMDA 50 μM 15 min, 20 h) |
| --- | --- | --- | --- | --- | --- | --- | --- | --- | --- | --- | --- | --- | --- |
| CC(C)c1cc2c(c(O)c1O)[C@@]1(C(=O)O)CCCC(C)(C)[C@@H]1CC2 [CA, carnosic acid] | abrogated by Nrf2-DN | 2.3 | 34.5±3.6 | significantly suppressed | 0.1 to 1 | 36 ± 2.3 |  |  |  |  |  |  |  |
| COC(=O)CCCCC/C=C1/C(=O)C=C[C@H]1CCCCCCc1ccc(C)cc1 [NEPP11] |  |  |  |  |  |  | no effect | significantly increased | inhibited | did not significantly affect | did not significantly affect | significantly reduced | significantly decreased |
